These results are taken from patent US9284325B2, “Spectinamides as anti-tuberculosis agents” (UNIVERSITY OF TENNESSEE RESEARCH FOUNDATION, priority 2009, dated 2016).

The structures appear in SMILES notation. Counter-ions that a name gives are not always drawn.

The test system of experiment [1] is M. tuberculosis H37Rv. Nature of the experiment: MIC determination by microbroth dilution, anti-tuberculosis activity. Type of experiment: cell-based, Mycobacterium tuberculosis. The note with it: Mycobacterium tuberculosis, H37RV, 168 h; read-out: MIC. Background: Broth dilution looks for growth in wells or tubes with falling amounts of substance.
Experiment [2] relates to S. aureus 8325 or strain ATCC 29213. Briefly: MIC determination by microbroth dilution. Type of experiment: cell-based, Staphylococcus aureus. The note with it: Staphylococcus aureus, ATCC29213; S. aureus 8325 or strain ATCC 29213 (for 1471-1544).
For experiment [3], the system named is Strep. pyogenes ATCC 700294. Nature of the experiment: MIC determination by microbroth dilution. Type of experiment: cell-based, Streptococcus pyogenes. The settings on record: Streptococcus pyogenes, ATCC700294, read-out: MIC S. pyogenes.
Experiment [4] has as its system Strep. pneumoniae DAW27 or strain R6. Nature of the experiment: MIC determination by microbroth dilution. The settings on record: Streptococcus pneumoniae; Strep. pneumoniae DAW27 or strain R6 (for 1443-1544); read-out: MIC S. pneumoniae. The format is cell-based, Streptococcus pneumoniae.
In experiment [5] the test system is E. faecalis ATCC 33186. Nature of the experiment: MIC determination by microbroth dilution. Type of experiment: cell-based, Enterococcus faecalis. The note with it: Enterococcus faecalis, ATCC33186.
The subject of experiment [6] is B. anthracis Sterne 34F2. Briefly: microbe, parasite or virus in culture. The format is cell-based, Bacillus anthracis. The settings on record: Bacillus anthracis, STERNE34F2, read-out: MIC B. anthracis 34F2.
In experiment [7] the test system is Burkholderia cepacia ATCC 25416. Briefly: MIC determination by microbroth dilution. Type of experiment: cell-based. The settings on record: ATCC25416, read-out: MIC B. cepcia.
The subject of experiment [8] is Proteus mirabilis ATCC 25933. Nature of the experiment: MIC determination by microbroth dilution. The format is cell-based. The note with it: ATCC25933.
Experiment [9] relates to Proteus vulgaris ATCC 33420. Briefly: MIC determination by microbroth dilution. The settings on record: ATCC33420. Type of experiment: cell-based.
Experiment [10] concerns Klebsiella pneumoniae ATCC 33495. Briefly: MIC determination by microbroth dilution. The format is cell-based. The note with it: ATCC33495.
The test system of experiment [11] is Acinetobacter baumannii ATCC 19606. Nature of the experiment: MIC determination by microbroth dilution. Type of experiment: cell-based. The note with it: ATCC19606.
Experiment [12] relates to P. aeruginosa PAO1. Nature of the experiment: MIC determination by microbroth dilution. The format is cell-based, Pseudomonas aeruginosa. The note with it: Pseudomonas aeruginosa.
Experiment [13] relates to Strenotrophomonas maltophilia ATCC 13637. Briefly: MIC determination by microbroth dilution. The format is cell-based.
The subject of experiment [14] is E. coli K12. Nature of the experiment: MIC determination by microbroth dilution. Type of experiment: cell-based, Escherichia coli. The note with it: Escherichia coli, K12.
Experiment [15] has as its system E. coli K12 ΔtolC. Briefly: microbe, parasite or virus in culture. The format is cell-based. The settings on record: Escherichia coli, read-out: MIC E. coli K12 ΔtolC.
Experiment [16] deals with E. coli ribosomes. The format is biochemical. The settings on record: for relative inhibitory activity on luciferase production: tested at 0.66 and 6.6 μM, FIG. 5; for IC50, 50% inhibition of luciferase biosynthesis in S30 assay: E. coli S30 transcription/translation assay.

As to `CN[C@@H]1[C@H](O)[C@H](NC)C2O[C@]3(O)C(OC2[C@H]1O)O[C@H](C)C[C@H]3NC(=O)c1ccc(F)cc1` (stereo partly drawn) [Compound 1364, 3′-Dihydro-3′-deoxy-4(R)-4-fluorobenzoylamino spectinomycin Dihydrochloride], the MIC is 50 µg/mL in experiment [1]; more than 200 µg/mL in experiment [2]; 100 µg/mL in experiment [3]; more than 200 µg/mL in [4]; more than 200 µg/mL in experiment [5]; 200 µg/mL in [6]. Also, the MIC in experiment [7], in experiment [8], in experiment [9], in experiment [10], in experiment [11] and in experiment [12] was more than 200 µg/mL each time. Also, the MIC was more than 200 µg/mL in experiment [13], more than 200 µg/mL in [14] and 100 µg/mL in [15]. Also, the “relative inhibitory activity on luciferase production” value (shortened to “relative inhibitory activity”) in experiment [16] is “less active than 1329”.
On to `CN[C@@H]1[C@H](O)[C@H](NC)C2O[C@]3(O)C(OC2[C@H]1O)O[C@H](C)C[C@H]3NC(=O)c1ccco1` (stereo partly drawn) [Compound 1365, 3′-Dihydro-3′-deoxy-4(R)-furan-2-carboxylicamino spectinomycin Dihydrochloride], for which the MIC in [1] was 100 µg/mL; in experiment [2] it was more than 200 µg/mL; in [3], more than 200 µg/mL; in experiment [4] it was more than 200 µg/mL; in [5] it was more than 200 µg/mL; in [6], more than 200 µg/mL. For the same molecule, the MIC in experiment [7], in experiment [8], in experiment [9], in experiment [10], in experiment [11] and in [12] was more than 200 µg/mL in each case. Besides, the results for the MIC in experiment [13], in experiment [14] and in experiment [15] were more than 200 µg/mL, more than 200 µg/mL and 200 µg/mL, respectively. In experiment [16], the “relative inhibitory activity” value is reported as “less active than 1329”.
On to `CN[C@@H]1[C@H](O)[C@H](NC)C2O[C@]3(O)C(OC2[C@H]1O)O[C@H](C)C[C@H]3NC(=O)Cc1ccc(F)cc1` (stereo partly drawn) [Compound 1367, 3′-Dihydro-3′-deoxy-4(R)-(4-fluoro-phenyl)-acetylamino spectinomycin Dihydrochloride], for which the MIC is 3.1 µg/mL in experiment [1]; 50 µg/mL in [2]; 50 µg/mL in experiment [3]; 50 µg/mL in experiment [4]; 200 µg/mL in [5]; 50 µg/mL in [6]. Moreover, the MIC in experiment [7] was more than 200 µg/mL; in [8], more than 200 µg/mL; in experiment [9] it was more than 200 µg/mL; in [10], more than 200 µg/mL; in experiment [11] it was more than 200 µg/mL; in [12], 100 µg/mL. Further, the MIC in [13] is more than 200 µg/mL; in [14], 200 µg/mL; in experiment [15], 50 µg/mL. Besides, the “IC50, 50% inhibition of luciferase biosynthesis in S30 assay” value (“IC50, 50% inhibition” below) in [16] amounted to 1.05 µg/mL.
Turning to `CN[C@@H]1[C@H](O)[C@H](NC)C2O[C@]3(O)C(OC2[C@H]1O)O[C@H](C)C[C@H]3NC(=O)Cc1cccnc1` (stereo partly drawn) [Compound 1368, 3′-Dihydro-3′-deoxy-4(R)-(pyridin-3-yl)acetylamino spectinomycin Dihydrochloride], the MIC in experiment [1] was 12.5 µg/mL; in experiment [2], 50 µg/mL; in [3], more than 200 µg/mL; in experiment [4], more than 200 µg/mL; in experiment [5], more than 200 µg/mL; in experiment [6], 6.25 µg/mL. For the same molecule, the MIC in experiment [7], in [8], in experiment [9], in experiment [10], in experiment [11] and in experiment [12] was more than 200 µg/mL in each case. The MIC in [13] is more than 200 µg/mL; in experiment [14], 100 µg/mL; in [15] it was more than 200 µg/mL. Besides, the “IC50, 50% inhibition” value in [16] was 1.08 µg/mL.
On to `CN[C@@H]1[C@H](O)[C@H](NC)C2O[C@]3(O)C(OC2[C@H]1O)O[C@H](C)C[C@H]3NC(=O)CC(C)C` (stereo partly drawn) [Compound 1369, 3′-Dihydro-3′-deoxy-4(R)-(3-methyl)-butanoylamino spectinomycin Dihydrochloride], for which the MIC is 200 µg/mL in [1]; more than 200 µg/mL in experiment [2]; more than 200 µg/mL in experiment [3]; more than 200 µg/mL in experiment [4]; more than 200 µg/mL in experiment [5]; 200 µg/mL in experiment [6]. Also, the MIC in experiment [7], in [8], in [9], in experiment [10], in experiment [11] and in [12] was more than 200 µg/mL each time. In addition, the MIC in [13], in experiment [14] and in [15] was more than 200 µg/mL throughout. In addition, in experiment [16], the “relative inhibitory activity” value is “less active than 1329”.
In the case of `CN[C@@H]1[C@H](O)[C@H](NC)C2O[C@]3(O)C(OC2[C@H]1O)O[C@H](C)C[C@H]3NC(=O)c1ccccn1` (stereo partly drawn) [Compound 1370, 3′-Dihydro-3′-deoxy-4(R)-pyridin-2-carboxylicamino spectinomycin Dihydrochloride], the MIC in experiment [1] is 100 µg/mL; in [2] it was more than 200 µg/mL; in experiment [3] it was more than 200 µg/mL; in [4], more than 200 µg/mL; in [5], more than 200 µg/mL; in [6], 50 µg/mL. In addition, the MIC in [7], in experiment [8], in experiment [9], in experiment [10], in [11] and in experiment [12] was more than 200 µg/mL throughout. The MIC in experiment [13] is more than 200 µg/mL; in experiment [14], 200 µg/mL; in [15] it was 100 µg/mL. Moreover, the “IC50, 50% inhibition” value in [16] amounted to 0.89 µg/mL. In addition, in [16], the “relative inhibitory activity” value was “less active than 1329”.
Turning to `CN[C@@H]1[C@H](O)[C@H](NC)C2O[C@]3(O)C(OC2[C@H]1O)O[C@H](C)C[C@H]3NC(=O)Cc1ccccc1` (stereo partly drawn) [Compound 1398, 3′-Dihydro-3′-deoxy-4(R)-phenylacetylamino spectinomycin Dihydrochloride], the MIC in experiment [1] is 6.1 µg/mL; in experiment [2] it was 100 µg/mL; in experiment [3] it was 50 µg/mL; in [4] it was 100 µg/mL; in experiment [5], more than 200 µg/mL; in [6] it was 100 µg/mL. Moreover, the MIC in experiment [7] was more than 200 µg/mL; in experiment [8], more than 200 µg/mL; in experiment [9] it was more than 200 µg/mL; in experiment [10], more than 200 µg/mL; in experiment [11], more than 200 µg/mL; in experiment [12], 100 µg/mL. Also, the MIC in experiment [13] was more than 200 µg/mL; in experiment [14] it was more than 200 µg/mL; in experiment [15], 200 µg/mL. Besides, the “IC50, 50% inhibition” value in experiment [16] worked out at 0.78 µg/mL.
On to `CN[C@@H]1[C@H](O)[C@H](NC)C2O[C@]3(O)C(OC2[C@H]1O)O[C@H](C)C[C@H]3NC(=O)Cc1ccncc1` (stereo partly drawn) [Compound 1413, 3′-Dihydro-3′-deoxy-4(R)-(pyridin-4-yl)acetylamino spectinomycin Dihydrochloride], for which the MIC in experiment [1] is 100 µg/mL; in experiment [2], 50 µg/mL; in experiment [3] it was 200 µg/mL; in [4], more than 200 µg/mL; in experiment [5] it was more than 200 µg/mL; in experiment [6] it was 200 µg/mL. The MIC in [7], in [8], in experiment [9], in [10], in experiment [11] and in experiment [12] was more than 200 µg/mL each time. In addition, the MIC in experiment [13] is more than 200 µg/mL; in experiment [14] it was 200 µg/mL; in experiment [15], 50 µg/mL. Also, the “IC50, 50% inhibition” value in [16] was found to be 1.92 µg/mL.
With `CN[C@@H]1[C@H](O)[C@H](NC)C2O[C@]3(O)C(OC2[C@H]1O)O[C@H](C)C[C@H]3NCCC(C)C` (stereo partly drawn) [Compound 1420, 3′-Dihydro-3′-deoxy-4(R)-(3-methyl)butylamino spectinomycin Trihydrochloride], the MIC stood at 200 µg/mL in [1]; 100 µg/mL in [2]; 200 µg/mL in [3]; 100 µg/mL in [4]; 200 µg/mL in [5]; 50 µg/mL in [6]. Besides, the MIC in experiment [7] is more than 200 µg/mL; in experiment [8] it was more than 200 µg/mL; in experiment [9], more than 200 µg/mL; in experiment [10] it was more than 200 µg/mL; in experiment [11], more than 200 µg/mL; in [12], 200 µg/mL. In addition, the MIC in experiment [13] is 200 µg/mL; in experiment [14] it was 100 µg/mL; in experiment [15], 25 µg/mL. In addition, the “relative inhibitory activity” value in [16] is listed as “inhibited well”.
